The source of these data is paper PMC7852560 (Neuropsychopharmacology, 2020).

For one data set, the target named is Dopamine D2 (Homo sapiens, UniProt P14416). Kind of data set: SafetyScreen44 panel: Dopamine D2. Format: binding. To be noted: 1 µM. Here is the method: (§1) The screen assesses the selectivity of the compound on a diverse panel of targets that includes GPCRs, drug transporters, ion channels, nuclear receptors, kinases, and other non-kinase enzymes. The screen employs radioligand binding or enzyme assays for these 44 targets.
Chain of Dopamine D2 (P14416 other isoform, or with tags, fused parts or gaps): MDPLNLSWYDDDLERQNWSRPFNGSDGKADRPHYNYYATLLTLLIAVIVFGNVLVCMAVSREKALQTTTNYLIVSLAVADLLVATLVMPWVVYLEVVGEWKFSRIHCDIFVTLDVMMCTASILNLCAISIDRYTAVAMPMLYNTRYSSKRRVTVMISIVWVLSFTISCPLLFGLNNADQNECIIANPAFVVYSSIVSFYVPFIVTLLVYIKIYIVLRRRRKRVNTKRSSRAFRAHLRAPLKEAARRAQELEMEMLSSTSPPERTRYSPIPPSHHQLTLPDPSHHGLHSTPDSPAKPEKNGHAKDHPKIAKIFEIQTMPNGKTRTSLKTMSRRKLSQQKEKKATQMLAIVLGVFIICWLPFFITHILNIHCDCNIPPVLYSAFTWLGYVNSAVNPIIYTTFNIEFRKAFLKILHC
(§2) For receptor assays, binding was calculated as percent inhibition of the binding of a radioactively labeled ligand specific for each target. For enzyme assays, the inhibition effect was calculated as percent inhibition of control enzyme activity. Tests were performed in duplicate, and results are averages of those two tests. See https://www.eurofinsdiscoveryservices.com.

Another data set can be described thus: in vivo. More on the design: species or system male C57Bl/6 mice. Here is the method: Microsomal stability assays were conducted by Cyprotex Ltd (Macclesfield, UK).
Blood samples (approximately 60 µL; n=3 mice per time-point) were taken at 0.08, 0.25, 0.5, 1, 2, 4, 6 and 8 hrs. Immediately after collection of blood, brain samples were collected from the set of three mice at each time point. Plasma samples were separated by centrifugation of whole blood, while brain samples were homogenized in ice-cold phosphate buffer saline (pH 7.4). Total homogenate volume was three times the brain weight. Plasma and homogenates were stored below -70±10 °C until analysis. The extraction procedure for plasma/brain samples and the spiked plasma/brain calibration standards were identical. To a 25 µL volume of study sample (dilution factor applied to some samples) or spiked plasma/brain calibration standard, 100 µL of internal standard prepared in acetonitrile (Glipizide, 500 ng/mL) was added, except for blank where 100 µL of acetonitrile was added. […] Pharmacokinetic parameters were calculated using the non-compartmental analysis tool of Phoenix WinNonlin® (Version 7.0). Areas under the concentration time curve (AUC) values were calculated by linear trapezoidal rule.

The next data set relates to C57Bl/6J mice. Format: in vivo. Conditions: 10 mg/kg i.p., 30 min before test, compared to vehicle. An excerpt:
(i.p.) before testing. The EPM was composed of 4 opaque-white arms (2 opposite arms closed, 2 opposite arms open), arranged in a plus shape, with an open center. The dimensions were as follows; maze elevation (38.7cm), open arm (L:30.5 cm, W:5 cm, H:0 cm), closed arm (L:30.5 cm, W:5 cm, H:15.2 cm) and center (5 cm x 5 cm). The experiment mouse was placed in the center of the maze and allowed to freely explore the maze for 8-min (50lux), while being tracked with an overhead camera. Open and closed arm times were recorded and collected by Biobserve Viewer3 software. The percentage of time spent in the open arms as compared to closed arms and center time was calculated and expressed as a percent of time spent in the open or closed arms of the maze.

A further data set addresses T1, 5HT1B (Rattus norvegicus, UniProt P28564).
T1 construct: Eurofins Cerep
Kind of data set: SafetyScreen44 panel: 5HT1B. Conditions: 1 µM. Format: binding. Here is the method:
as §1, §2

Another data set relates to Male C57Bl/6J mice. Kind of data set: Cannabinoid-induced tetrad. It counts as in vivo. Conditions: 10 mg/kg i.p., 30 min prior. Here is the method:
Male C57Bl/6J mice (PD > 70) were tested on the cannabinoid-induced tetrad, as previously described.
(i.p.) before testing. The tetrad was performed (1) catalepsy, (2) locomotion, (3) temperature, and (4) analgesia. Catalepsy: time (s) spent immobile with front paws on a plastic rod (1.5cm diameter), at a height of 4.5-cm from the table, before adjusting abnormal posture (either front paws being removed from the bar, or back paws climbing onto bar). Locomotion: horizontal activity (cm) was immediately measured in an open field test, following catalepsy, for 15-min. in 1-min bins. Temperature: rectal temperature (°C) was measured immediately following open-field testing, using a thermometer with rectal probe (Labcorp, Fisher, Waltham, MA). Analgesia: latency (s) to withdraw tail from hot water bath (52 °C), to assess tail-flick antinociception, was completed immediately following temperature readings.

Another data set concerns the target CB1R (Homo sapiens, UniProt P21554). Nature of the data set: Equilibrium binding assay with [3H]CP55,940 in hCB1R CHO cells. Here is the method: Non-specific binding was defined in the presence of 10 µM WIN55,212-2.
Radioactivity was quantitated by liquid scintillation spectrometry. Specific binding was defined as the difference between the binding that occurred in the presence and absence of 10 µM of WIN55212. Data were analyzed by nonlinear regression analysis of allosteric modulator titration model using GraphPad Prism 8.0 (GraphPad, San Diego, CA).

For the next data set, the system named is NMDA. Nature of the data set: SafetyScreen44 panel: NMDA. Format: binding. Conditions: 1 µM. The source says:
See https://www.eurofinsdiscoveryservices.com.

In a further data set the target is T2, 5HT3 (Homo sapiens, UniProt P46098).
T2 construct: Eurofins Cerep
T2 sequence (P46098 24-478): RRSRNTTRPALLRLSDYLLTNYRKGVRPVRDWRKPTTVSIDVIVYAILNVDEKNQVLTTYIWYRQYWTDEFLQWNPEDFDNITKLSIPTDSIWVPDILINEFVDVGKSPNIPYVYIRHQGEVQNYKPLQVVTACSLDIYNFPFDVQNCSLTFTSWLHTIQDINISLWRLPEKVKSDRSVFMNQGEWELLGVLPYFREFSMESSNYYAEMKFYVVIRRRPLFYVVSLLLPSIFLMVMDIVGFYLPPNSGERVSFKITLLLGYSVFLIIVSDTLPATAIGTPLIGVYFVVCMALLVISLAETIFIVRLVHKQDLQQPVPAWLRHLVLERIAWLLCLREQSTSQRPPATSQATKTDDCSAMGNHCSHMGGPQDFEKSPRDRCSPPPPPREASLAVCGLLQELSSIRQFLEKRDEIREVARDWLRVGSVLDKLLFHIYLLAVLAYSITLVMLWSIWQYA
Nature of the data set: SafetyScreen44 panel: 5HT3. It counts as binding. To be noted: 1 µM. Here is the method: as §1, §2

Another data set concerns DATKO mice. Kind of data set: Open-field test in DATKO mice. Conditions: 10 mg/kg i.p., 30 min before test.
In data set [1] the test system is 44 different receptors, ion channels and enzymes. Conditions: 1 µM. Here is the method: as §1, §2
[2] abbreviates: male, C57Bl/6, mouse, ip, 10 mg/kg.

Values joined by “and” are separate entries in the source; they are usually repeats but may differ in a detail not shown here. Equal entries are not always repeated.

Chain of CB1R (P21554 whole entry): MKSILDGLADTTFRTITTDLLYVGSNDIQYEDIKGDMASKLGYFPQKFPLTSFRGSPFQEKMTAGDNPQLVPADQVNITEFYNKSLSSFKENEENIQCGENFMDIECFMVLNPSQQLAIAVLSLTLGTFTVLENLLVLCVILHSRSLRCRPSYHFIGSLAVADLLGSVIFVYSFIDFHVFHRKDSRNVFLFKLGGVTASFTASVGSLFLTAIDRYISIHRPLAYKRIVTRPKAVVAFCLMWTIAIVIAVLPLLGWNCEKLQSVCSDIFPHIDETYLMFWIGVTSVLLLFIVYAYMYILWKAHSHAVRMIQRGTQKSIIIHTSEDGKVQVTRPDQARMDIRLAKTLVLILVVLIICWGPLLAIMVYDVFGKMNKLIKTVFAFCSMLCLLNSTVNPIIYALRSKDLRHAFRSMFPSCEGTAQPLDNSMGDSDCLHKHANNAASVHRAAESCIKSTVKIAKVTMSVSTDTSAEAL
T1 sequence (P28564 whole entry): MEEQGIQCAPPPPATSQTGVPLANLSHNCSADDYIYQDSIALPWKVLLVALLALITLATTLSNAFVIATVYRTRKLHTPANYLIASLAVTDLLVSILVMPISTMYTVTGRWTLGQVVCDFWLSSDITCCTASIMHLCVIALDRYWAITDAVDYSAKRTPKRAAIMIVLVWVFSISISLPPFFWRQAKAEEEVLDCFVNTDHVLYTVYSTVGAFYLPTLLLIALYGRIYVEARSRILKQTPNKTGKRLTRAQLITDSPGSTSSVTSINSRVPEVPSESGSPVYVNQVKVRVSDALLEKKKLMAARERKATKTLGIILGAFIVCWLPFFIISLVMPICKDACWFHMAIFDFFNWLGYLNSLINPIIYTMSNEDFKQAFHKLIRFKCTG

The AUC(0-t) is exposure summed from dosing to a finite time, without extrapolation to infinity. A low value points to low exposure. The term Cmax denotes the maximum level reached in the sampled fluid or tissue. As usually defined, the Tmax is the time at which the peak concentration occurs. As usually defined, the half-life is the time in which the quantity being followed falls by half. Read a low half-life as fast loss. The EC50 is the concentration that produces a half-maximal response. Take `CCc1c(-c2nnc(Nc3ccccc3)o2)[nH]c2ccc(Cl)cc12` [ABM300, 5-(5-chloro-3-ethyl-1H-indol-2-yl)-N-phenyl-1,3,4-oxadiazol-2-amine]: the “binding to Dopamine D2” value on Dopamine D2 was “did not display any significant binding”. Moreover, the concentration at 30 min in “in vivo” (male, C57Bl/6, mouse, 10 mg/kg i.p., at 30 min, read-out: brain concentration) came out at 374 ± 39 ng/mL. Further, in the data set “in vivo” (setting [2]), the area under the curve AUC(0-t) is 2050 ng·h/mL; the maximum concentration (Cmax) is 866 ng/mL and 412 ng/g. In “in vivo” (male, C57Bl/6, mouse, ip, 10 mg/kg, Tmax), the Tmax turned out to be 30 min. For the same compound, the AUClast in the data set “in vivo” (mouse, ip, 10 mg/kg) worked out at 1577.92 ng·h/g. The half-life in the data set “in vivo” (mouse, ip, 10 mg/kg i.p., male C57Bl/6 mice) was around 120 min. In addition, the “time spent in the open arms (EPM)” value with C57Bl/6J mice is on record as “did not affect”. In addition, at 5HT1B, the “binding to 5HT1B” value is on record as “did not display any significant binding”. Besides, in the data set with Male C57Bl/6J mice, the “tetrad: catalepsy-induced immobility time” value is given as “no effect”, the “tetrad: percent inhibition of locomotor activity (15 min)” value is “no effect”, the “tetrad: rectal temperature” value is “no effect” and the “tetrad: tail withdrawal (% MPE)” value was “no effect”. On CB1R, this compound had a Kb of 178 nM. Further, on CB1R (EC50, increase in specific binding of [3H]CP55,940, hCB1R CHO, [3H]CP55,940 0.5 nM), the EC50 turned out to be 132 nM. The “Emax, increase in specific binding of [3H]CP55,940” value on CB1R (hCB1R CHO, [3H]CP55,940 0.5 nM) is reported as 328 ± 47%. Moreover, the concentration for a half-maximal effect (EC50) on CB1R (pEC50, increase in specific binding of [3H]CP55,940, hCB1R CHO, [3H]CP55,940 0.5 nM) was 126 nM. In the data set with NMDA, the “binding to NMDA” value is reported as “did not display any significant binding”. For the same compound, the “binding to 5HT3” value on 5HT3 is listed as “did not display any significant binding”. Moreover, in the data set with DATKO mice, the “dysregulated hyperactivity (total distance traveled)” value was “normalized”, the stereotypic movements result is “normalized” and the vertical exploration entry is on record as “normalized”. Also, in data set [1], the “binding to SafetyScreen44 targets” value is recorded as “did not display any significant binding”.
